The text below walks through data of the SangsterLogP compilation.

One data set in a line: method code SF, from DOI: 10.1016/j.ejps.2012.10.019, PMID: 23131797. The note with it: pH 2.0.
As a reminder, the logD is lipophilicity at a set pH, counting ionised and neutral species. Read a low logD as a more hydrophilic compound. In the case of `Cc1cccc(C)c1NC(=O)CNC(=O)C1CCN(S(=O)(=O)c2cccc(Cl)c2Cl)CC1`, the logD stood at 3.41. Take `O=C(OCc1c(F)cccc1Cl)c1cccc(S(=O)(=O)N2CCCC2)c1`: the logD stood at 4.22.

Staying with this data set, now noted: pH 5.0.
Take `C=CCn1c(C)c(C=C2C(=O)OC3(CCCCC3)OC2=O)c2ccccc21`: the logD is 4.62. On the same count and under the same terms, next, `COc1ccc(CCNC(=O)CSc2nc3c(c(=O)n(C)c(=O)n3C)n2Cc2ccccc2F)cc1OC`: 4.

With `CCOc1ccccc1OCC(=O)Nc1ccc2ccccc2c1`, the pH-dependent lipophilicity (logD) came out at 4.73. For `CCOC(=O)c1c(C)[nH]c(C)c1C(=O)COC(=O)c1ccc(F)c(S(=O)(=O)N2CCOCC2)c1`, the pH-dependent lipophilicity (logD) came to 3.63. Still for that read-out and setting: to `O=C(NC1CCCC1)C1c2ccccc2Oc2ccccc21` belongs 3.95; to `CSc1scc(-c2cccs2)c1C#N`, 3.69; to `Cc1ccc(SCC(=O)NCc2cccc(CNC(=O)CSc3ccc(C)cc3)c2)cc1`, 5.08. The same measure, in the same setting: next, `CC(=O)c1cc2ccccc2o1`: 2.15; `CC12CCCC(C(N)=O)(CCC1)C2`: 2.73; `c1ccc(-n2nnnc2OCCOc2nnnn2-c2ccccc2)cc1`: 3.72. The same measure, in the same setting: next, `CCCC(=O)OCC(=O)Nc1ccc(F)cc1Cl`: 3.02; `c1ccc2c(c1)OCCOCCOCCO2`: 1.81; `CCc1ccc(-n2nnnc2SCC(=O)Nc2ccc(C(C)=O)cc2)cc1`: 4.69. As to `COc1ccc(NC(=O)c2cc(NC(=O)c3ccccc3)cc(C(=O)Nc3ccc(OC)cc3)c2)cc1`, the logD is 5.59. Still for that read-out and setting: to `CN(Cc1ccccc1)S(=O)(=O)c1ccc(NC(=O)Cc2ccc(F)cc2)cc1` belongs 5.14; to `Cc1cc(=O)oc2cc(OC(C)C)ccc12`, 3.33; to `COC(=O)C1=C(C)NC(C)=C(C(=O)OC)C1c1cn(-c2ccccc2)nc1-c1cccc([N+](=O)[O-])c1`, 5.04.

In turn, `COc1ccc(C(=O)CSc2nnc(-c3ccccc3)o2)cc1` returned a logD of 4.15. Turning to `O=C(COC(=O)c1ccccc1F)Nc1ccccc1`, the logD was found to be 3.18. As to `CC1=CC(C(F)(F)F)(C(F)(F)F)C(C#N)=C(N)N1c1ccc(C(N)=O)cc1`, the logD turned out to be 4.41.

`Cc1ccc(-c2cc(C(F)F)n3ncc(C(=O)N4CCSCC4)c3n2)cc1` showed a logD of 4.55. Still for that read-out and setting: to `COc1ccc(N2C(=O)Cc3ccccc3C2=O)cc1` belongs 2.56; to `CC(=O)Oc1cccc(N2C(=O)c3ccc(C(=O)c4ccc5c(c4)C(=O)N(c4cccc(OC(C)=O)c4)C5=O)cc3C2=O)c1`, 5.13. Same read-out and setting: next, `COc1ccc(C)cc1-n1nnnc1SCC(=O)Nc1cc(C(N)=O)cc(C(N)=O)c1`: 4.15; `O=C1CCCC2=C1C(c1ccc(OCc3ccccc3F)cc1)C1=C(CCCC1=O)O2`: 4.92; `Cc1ccc(S(=O)(=O)N2CCCN(S(=O)(=O)c3ccc(C)cc3C)CC2)c(C)c1`: 5.01.

With `Cc1cccc(C(=O)Nc2ccc(NC(=O)c3ccccc3)c(C)c2)c1`, the logD was determined as 4.14. For `O=C(c1c(F)cccc1F)N1CCCC1`, the logD amounted to 1.88. The same measure, in the same setting: next, `N#CCSc1nc2ccccc2c(=O)n1-c1ccc(OC(F)F)cc1`: 4.17; `CCCCC(=O)Nc1ccc(F)c([N+](=O)[O-])c1`: 3.04; `O=C(NCCc1ccccc1)c1ccc(Cl)cc1`: 3.71. Molecule `CCn1cc(CN(C)C(=O)c2cc3cc(Br)ccc3oc2=O)c(C)n1` returned a logD of 3.27.

Molecule `N#Cc1c(SCC(=O)OCc2ccccc2)nsc1SCC(=O)OCc1ccccc1` yielded a logD of 5.6.

Take `Cc1c(OCc2ccccc2)cccc1[N+](=O)[O-]`: the logD stood at 4.41. The same measure, in the same setting: to `CCCCC(=O)NC1C2CC3CC(C2)CC1C3` (stereo unspecified) belongs 3.8. Turning to `CCOC(=O)c1[nH]c2c(c1C)C(Cl)=C(C=O)CC2`, the logD was 3.92. Consider `NC(=O)c1cc(NC(=O)c2cc(C(F)(F)F)cc(C(F)(F)F)c2)cc(C(N)=O)c1`, for which the logD is 3.87. `COc1ccc(S(=O)(=O)n2c(=O)n(S(=O)(=O)c3ccc(OC)cc3)c3ccccc32)cc1` showed a logD of 5.22. Still for that read-out and setting: next, `Cc1cc2nsnc2c([N+](=O)[O-])c1C`: 2.64; `O=C(Nc1ccc(OC(F)F)cc1)c1ccc(COc2ccc(I)cc2)o1`: 5.99; `COCc1cc(OC(=O)N(C)C)nc(SCC(=O)C(C)(C)C)n1`: 3.33.

Take `Clc1ccc(CSc2ncccn2)cc1Cl`: the logD stood at 4.33.

`COc1ccc2c(C)c(C)c(=O)oc2c1C` gave a logD of 3.45.

With `CCOc1cc(C#N)c(NC(=O)c2cc(S(=O)(=O)N3CCOCC3)c(Cl)cc2Cl)cc1OCC`, the logD turned out to be 4.31.

For `CN(C)S(=O)(=O)c1ccc(C(=O)OC2CCCCC2)cc1`, the logD was determined as 4.27. Still for that read-out and setting: to `COc1ccc(C=O)cc1COc1c(F)c(F)cc(F)c1F` belongs 4.24. The same measure, in the same setting: to `COc1cccc(-c2cn3c4c(=O)n(C)c(=O)n(C)c4nc3n2-c2cccc(C)c2)c1` belongs 4.16; to `CCOC(=O)c1cnn(C(=O)c2cnn(-c3ccc([N+](=O)[O-])cc3)c2C(F)(F)F)c1N`, 3.53. The same measure, in the same setting: next, `O=C(COC(=O)c1cccc(N2C(=O)c3ccccc3C2=O)c1)c1ccc(F)cc1`: 4.68; `CSc1nc2c(C#N)c(SC)nn2c(-c2ccc(Cl)cc2)c1C#N`: 5.51.

In turn, `CCc1ccc(OCC(=O)NCCc2ccc(OC)c(OC)c2)cc1` displayed a logD of 4.22. In turn, `CCc1cc(=O)oc2c(C)c(OCC(=O)OC(C)(C)C)ccc12` had a logD of 4.52.

On to `O=C(NC1CC1)c1ccc(COc2c(F)c(F)cc(F)c2F)o1`, for which the log distribution coefficient (logD) was 3.54. The same measure, in the same setting: next, `C#Cc1cccc(NC(=O)c2cc(C(=O)Nc3cccc(C#C)c3)cc(N3C(=O)c4ccccc4C3=O)c2)c1`: 6.85; `O=C(Cn1cc(C(F)(F)F)cc(Cl)c1=O)N1CCN(C(=O)c2ccco2)CC1`: 2.27; `COC(=O)/C=C/CN1C(=O)c2ccccc2C1=O`: 2.46.

The data set is the same for the next values; noted with them: pH 6.5.
Regarding `CS(=O)(=O)N(CC(=O)Nc1c(F)cccc1F)c1cc(Cl)c(Cl)cc1Cl`, the logD came out at 4.34. Same read-out and setting: to `N#CC(=Cc1ccc2c(c1)OCO2)C(=O)NCc1cccc(CNC(=O)C(C#N)=Cc2ccc3c(c2)OCO3)c1` belongs 4.92. The same measure, in the same setting: to `COc1cc(C=O)ccc1OS(=O)(=O)c1ccc(F)c(F)c1` belongs 3.68.

As for `CN1C(=CC=CC(=O)C(F)(F)F)C(C)(C)c2ccccc21`, the logD is 4.41.

For the molecule `O=C(CC1Nc2ccccc2NC1=O)Nc1ccccc1NC(=O)CC1Nc2ccccc2NC1=O` (stereo unspecified), the logD was found to be 3.42.

In turn, `N#CCOC(=O)c1ccccc1SCC(=O)N1CCCC1` had a logD of 2.57.

Regarding `O=C(CSc1nnc2c3ccccc3n(Cc3ccccc3)c2n1)OCN1C(=O)c2ccccc2C1=O`, the logD stood at 4.51.

The data set is the same for the next values; noted with them: pH 7.3.
With `O=C(c1cccnc1)N1CCN(S(=O)(=O)c2ccccc2)CC1`, the logD amounted to 2.3. On the same count and under the same terms, next, `CCN1C(=O)c2cccc3c(S(=O)(=O)N(C(=O)c4cccnc4)c4ccc(OC)cc4)ccc1c23`: 4.74; `Cc1nc(-c2ccc(Cl)cc2)cs1`: 3.65. The same measure, in the same setting: next, `CCOC(=O)C1CCN(S(=O)(=O)c2nc3nc(C)cc(C)n3n2)CC1`: 2.71; `O=C(CSc1nnc(-c2ccccc2F)n1CCc1ccccc1)N1CCOCC1`: 3.79; `Nn1c(COc2ccccc2)nnc1SC(F)F`: 1.85. In the case of `CC1CCCC(C)N1C(=O)CSc1nnc(-c2ccco2)n1Cc1ccccc1` (stereo unspecified), the logD turned out to be 4.49. Still for that read-out and setting: to `CC(C)N(C(=O)CSc1nnc(NCc2ccccc2)s1)C(C)C` belongs 4.09; to `O=C(Nc1cccc(-c2cnc3ccccc3n2)c1)c1cccs1`, 4.34; to `O=C(Nc1cc2c(n(CCNc3ncc(C(F)(F)F)cc3Cl)c1=O)CCCC2=O)c1ccc(Cl)cc1`, 5.83.

Molecule `Cc1cccc(NC(=O)CSc2ccccn2)c1C` returned a logD of 3.19.

The same data set, now with this note: pH 8.0.
`CSc1ncccc1C(=O)OCC(=O)Nc1c(C)n(C)n(-c2ccccc2)c1=O` yielded a log distribution coefficient (logD) of 3.63. For the molecule `Cc1cc(SCC(=O)NCc2ccc3c(c2)OCO3)nc2ccccc12`, the logD was determined as 4.15.

Staying with this data set, now noted: pH 10.0.
Molecule `CC1(C)CC(=O)C2=C(C1)OC(N)=C(C#N)C21CCC2(CC1)OCCO2` gave a logD of 3.24. Still for that read-out and setting: next, `c1nc(NC2CCCC2)c2c3c(sc2n1)CCCC3`: 4.17; `Cc1ccc2c(C)nc(Nc3nc4c(c(=O)[nH]3)CCCC4)nc2c1`: 3.92. In turn, `CCOC(=O)CC1=Nn2c(nnc2-c2cccs2)SC1` displayed a logD of 2.98. In turn, `CC1CN(c2nc3ccccn3c(=O)c2C=C(C#N)C#N)CC(C)O1` (stereo unspecified) came in with a logD of 3.24.

Consider `COc1ccc(NC(=O)c2sc3sc(C(=O)Nc4ccc(OC)c(OC)c4)c(N)c3c2N)cc1OC`, for which the logD was determined as 4.88. The molecule `COc1ccc(C(=O)Cn2c(N3CCCCCC3)nc3c2c(=O)n(C)c(=O)n3C)cc1` had a logD of 4.42.

Molecule `O=C(c1ccc2c(c1)C(=O)N(c1nccs1)C2=O)c1ccc2c(c1)C(=O)N(c1nccs1)C2=O` displayed a logD of 3.25.

The data set is the same for the next values; noted with them: pH 10.5.
Turning to `CCn1c(SCc2ccccc2F)nc2sc(C)c(C)c2c1=O`, the logD came out at 5.86. With `CCn1cc(C2C3=C(CC(C)(C)CC3=O)N(c3ccc(C)cc3)C3=C2C(=O)CC(C)(C)C3)c(C)n1`, the log distribution coefficient (logD) turned out to be 5.35. Molecule `CCc1ccc2nc3c(cc2c1)c(=O)n(-c1ccccc1)c1c3c(=O)n(C)c(=O)n1C` yielded a logD of 4.31. `COc1ccc(S(=O)(=O)N2CCCCCC2)cc1C(=O)OCC(=O)c1c(N)n(C)c(=O)n(C)c1=O` yielded a pH-dependent lipophilicity (logD) of 4.59.

`CC(C)(C)c1cc(-c2nc(-c3ccc(C(F)(F)F)cn3)no2)n(Cc2ccccc2)n1` returned a pH-dependent lipophilicity (logD) of 6.58. Turning to `Cc1nc(N(C)C)c2sc(=S)n(-c3ccccc3)c2n1`, the logD came to 3.62. Same read-out and setting: to `Cc1cc(C)n2nc(SCC(=O)NCCNC(=O)CSc3nc4nc(C)cc(C)n4n3)nc2n1` belongs 0.82.

Turning to `COC(=O)CCNc1nc(-c2cccnc2)nc2sc3c(c12)CCCC3`, the logD is 4.69. For the molecule `CC1=NN(c2ccccc2)C(=O)C1Sc1nc(N)c(C#N)c(-c2ccc(C)cc2)c1C#N` (stereo unspecified), the logD was 4.99. The same measure, in the same setting: next, `C=CCNC(=O)CSc1nnc(CCn2nc(C)c(Br)c2C)n1CC`: 3.53.
